Data from patent US20080124338A1, “METHODS FOR TREATMENT OF INFLAMMATORY DISEASE AND CHLAMYDIA INFECTIOUS DISEASE” (The Scripps Research Institute, priority 2006, published 2008).
“Also recorded” adds a separate entry of the source. Peptide text beside a SMILES is read from it. * marks the point of attachment. Cbz = O=C(OCc1ccccc1)*

What was measured:
proteasomal degradation = test: Detection of p22 cleavage product in cells treated with MG-132; type: cell-based; settings: Chlamydia-infected cells treated with MG-132; data not shown
Text: The cleavage of p65 was confirmed by the detection of a 22 kDa fragment with a C-terminus specific antibody against p65 (FIG. 1C). […] The 40 kDa fragment was further characterized with MALDI proteomics. Thus, 293T cells, transfected for GST-p65 protein expression, were infected with LGV2 for 28 hr. After purification, the cleavage product was subjected to trypsin digestion followed by MALDI TOF identification. Seven proteolytic fragments were detected, which covered the N-terminal GST tag and the RHD region of p65 (supplemental data).
Western blots. Except as noted, extracts were prepared by lysis of cells with a buffer containing 143 mM NaCl, 50 mM Tris-HCl (pH 7.5), 1 mM DTT, 1% NP-40, 0.1% SDS and protease inhibitors (Roche). Soluble proteins were separated by SDS-PAGE or Tris-Glycine gels (Novex). Blots were probed with specific antibodies. Horseradish peroxidase conjugated secondary antibodies (Sigma) and ECL reagent kit (Pierce) were used for detection.

[1] = system: Chlamydia trachomatis LGV2; test: p65 cleavage in Chlamydia-infected cells treated with antibiotics (immunoblotting); type: cell-based; settings: rifampin 0.1 μg/ml, chloramphenicol 60 μg/ml, penicillin G 100 μg/ml, FIG. 1E
Experimental: A. Hela 229 cells were infected with Chlamydia trachomatis LGV2 at 1 IFU/cell for varying times, or with invasive (wt) or invasion-defective (mut) Salmonella typhimurium for 2 hr. IκBα expression and degradation were detected by immunoblotting analyses. TNFα (10 ng/ml) was used as a positive control. B. Hela 229 cells were infected with LGV2 at 1 IFU/cell for 2, 16 and 24 hr. The cytosolic (C) and nuclear (N) fractions were separated and redistribution of p65/RelA was detected by immunoblotting analysis. The expression of lamin A and β-tubulin were used as loading controls for nuclear and cytosolic fractions, respectively. C. Whole cell lysates from Chlamydia-infected cells were separated by SDS-PAGE and cleavage of p65 was detected with an N- or C-terminus specific antibody against p65. D. Selective cleavage of p65 by Chlamydia infection. The expression of NF-κB pathway signaling molecules in Chlamydia-infected and non-infected control cells was determined by immunoblotting analysis. E. Inhibition of Chlamydia growth blocks p65 cleavage. The infected cells were treated with rifampin (Rif, 0.1 μg/ml) or chloramphenicol (Chl, 60 μg/ml), reagents that inhibit Chlamydia growth by blocking transcription or translation, respectively. […] The expression of β-tubulin or Erk2/MAPK was used as loading controls. All experiments were performed at least 3 times.
Infection assays. […]

[2] = system: p65 cleavage activity of Chlamydia; test: In vitro p65 cleavage assay with solubilized chlamydial EB proteins; type: biochemical; settings: 37° C. for 60 min; inhibitor added 30 min prior to p65; EDTA 5 mM, lactacystin 10 μM; FIG. 2C
Experimental: Purified Chlamydia EB was solubilized with a buffer containing 1% NP-40. […] The graph represents the rates of p65 disappearance and p40 appearance in the same reaction. C. […] In parallel experiments, protease inhibitors were included in the in vitro p65 cleavage assay. […] Lane 4: Roche protease inhibitor cocktail at 10×; Lane 5: heat-inactivated EB; Lane 6: EDTA at 5 mM; Lane 7: Lactacystin at 10 μM; Lane 8: MG132 at 20 μM; Lane 9: TPCK at 20 μM; and Lane 10: TLCK at 20 μM. The presence of the chlamydial major outer membrane protein (MOMP) was used as a measure of EB protein input (lower panel).
In vitro p65 cleavage assays. Gradient purified chlamydial EB were solubilized with Tris-buffered saline, supplemented with 1% NP-40. The soluble proteins were collected and used for p65 cleavage assays. […] For inhibition assays, an inhibitor was added 30 min prior to the addition of p65 protein. All assays were performed at 37° C. for 60 min or as otherwise indicated.

IκBα = IκBα degradation in Hela 229 cells (immunoblotting); type: cell-based; settings: TNFα 10 ng/ml, positive control, FIG. 1A
Text: The host inflammatory response to bacterial infection or proinflammatory cytokine and LPS stimulation is mediated by NF-κB activity, which is regulated by the selective degradation of IκB proteins. Karin and Ben-Neriah, Annu. Rev. Immunol 18: 621, 2000; Richmond, Nat. Rev. Immunol 2: 664, 2002. To investigate whether Chlamydia targeted the NF-κB pathway to interfere with host inflammatory response, we first examined the integrity of IκBα, a regulatory molecule of NF-κB activation. To this end, monolayers of Hela 229 cells were infected with C. trachomatis LGV2 at 1 inclusion forming unit per cell (1 IFU/cell) for varying time points. Lad et al., J Immunol 174: 7186, 2005. […]
A. Hela 229 cells were infected with Chlamydia trachomatis LGV2 at 1 IFU/cell for varying times, or with invasive (wt) or invasion-defective (mut) Salmonella typhimurium for 2 hr. IκBα expression and degradation were detected by immunoblotting analyses. […] The cytosolic (C) and nuclear (N) fractions were separated and redistribution of p65/RelA was detected by immunoblotting analysis. […] Whole cell lysates from Chlamydia-infected cells were separated by SDS-PAGE and cleavage of p65 was detected with an N- or C-terminus specific antibody against p65. […] The expression of NF-κB pathway signaling molecules in Chlamydia-infected and non-infected control cells was determined by immunoblotting analysis. […]

NF-κB [3] = test: pIL8-luciferase reporter gene assay in 293T cells; type: cell-based, human; settings: TNFα 10 ng/ml, FIG. 3C, 3D
Experimental: (§1) We therefore investigated whether expression of CT441 interfered with NF-κB signal transduction. To this end, 293T cells were transfected with pIL8-luciferase (Kim et al., Cancer Res 65: 8784, 2005) and a plasmid for CT441 expression. The cells were then treated with TNFα to induce luciferase expression. In parallel experiments, we also included a mouse cell line for control purposes since murine p65 is resistant to cleavage by Chlamydia infection. […] The p40 cleavage product (amino acid residues 1-351) was then investigated for its inhibitory effect on TNFα-induced NF-κB activation.
(§2) A. Putative chlamydial proteases were expressed as N-terminal HA-tagged proteins in 293T cells and screened for their ability to cleave p65. […] 441, 494, 823 and 858 represent chlamydial CT441, CT494, CT823, and CT858, respectively. […] Monolayers of 293T or NIH3T3 cells were co-transfected with pIL8-Luc (Kim et al., Cancer Res 65: 8784, 2005) and a plasmid for the expression of chlamydial protease CT441 or the p40 cleavage product of p65. pSV40-RL was included as an internal control for transfection reactions. The cells were treated with TNFα (10 ng/ml) 18 hr post transfection to induce luciferase expression. Luciferase activities were determined with a Dual-Glo reagent kit (Promega) 18 hr after TNFα treatment. The ratio of firefly and Renilla luciferase activities (FL/RL) was plotted. […]

p65 = test: Expression of putative chlamydial proteases in 293T cells, cleavage of endogenous p65 (Western blot); type: cell-based, human; settings: N-terminal HA-tagged proteins expressed in 293T cells; FIG. 3A, 3B
Text: The chlamydial genome encodes 16 proteases (Stephens et al., Science 282: 754, 1998), including four putative proteases that contain a leader sequence for periplasmic secretion and potential translocation by the chlamydial type III secretory system. The mature peptides of those putative proteases were therefore screened for their ability to cleave p65 after expression in 293T cells. […] CT441 encodes a tail-specific protease (Tsp) that is well conserved among Chlamydia species.
as §2, with “plotted. All transfections were performed in duplicate and the data are presented as means +/− error.” for “plotted.”

NF-κB [4] = test: pIL8-luciferase reporter gene assay in NIH3T3 cells; type: cell-based, mouse; settings: TNFα 10 ng/ml, FIG. 3C
Experimental: as §1, §2

CC(C)C[C@@H](C=O)NC(=O)[C@H](CC(C)C)NC(=O)[C@H](CC(C)C)NC(=O)OCc1ccccc1 [MG-132] (Cbz-Leu-Leu-Leu-aldehyde)
detection of p22 (proteasomal degradation): Enhanced detection of p22

O=C(N[C@H](CO)[C@H](O)c1ccc([N+](=O)[O-])cc1)C(Cl)Cl [chloramphenicol]
Chlamydia cleavage of p65 [1]: blocked

CC(=O)N[C@@H](CSC(=O)[C@]1([C@@H](O)C(C)C)NC(=O)[C@H](C)[C@@H]1O)C(=O)O [lactacystin]
p65 cleavage activity of Chlamydia (solubilized EB proteins) [2]: inhibited p65 cleavage activity

CO[C@H]1/C=C/O[C@@]2(C)Oc3c(C)c(O)c4c(O)c(c(/C=N/N5CCN(C)CC5)c(O)c4c3C2=O)NC(=O)/C(C)=C\C=C\[C@H](C)[C@H](O)[C@@H](C)[C@@H](O)[C@@H](C)[C@H](OC(C)=O)[C@@H]1C [rifampin]
Chlamydia cleavage of p65 [1]: blocked

TNFα
IκBα degradation (IκBα): caused IκBα degradation

B1: CT441: Chlamydia trachomatis tail-specific protease, SEQ ID NO:2 (protein, listed as Chlamydia trachomatis)
chain: MMRFARFCLLVLTLFPQLAFSAEPLRRQDVRKTVDKLVEHHIDTQQISPYILSRSLEDYVRSFDSHKAYLTQDEVFSHAFSEEATRPLFKQYQEDNFSSFKELDTCIQQSISRAREWRSSWLTDSIRVIQDAMSHTIEKKPSAWASSIEEVKQRQYDLLLSYASIYLEDAAKNRYQGKEHALVKLCIRQIENHENPYIGINDHGYRMSPEEEANSFHVRIIKSIAHSLDAHTAYFSQEEALSMRAQLEKGMCGIGVVLKEDIDGVVVKEVLAGGPADKTGSLRVGDIIYRVNGKNIENTPFPGVLDSLRGSPGSSVTLDIHRQNNDHVIQLRREKILLDSRRVDVSYEPYGNGIIGKITLHSFYEGENQVSSEQDLRKAIRELQEKNLLGLVLDIRENTGGFLSQAIKVSGLFLTNGVVVVSRYADGSVKRYRTISPQKFYDGPLAVLVSKSSASAAEIVAQTLQDYGVALIVGDQQTYGKGTIQHQTITGSNSQEDFFKVTVGRYYSPSGKSTQLEGVKSDIVIPSRYAEDKLGERFLEYALPADQYENVINDNLGDLDINIRPWFQKYYSPHLQKPELVWREMLPQLAHNSQERLEKNKNFEIFVQHLKKTNKQDRSFGSNDLQMEESVNIVKDMILLKSIS
TNFα-induced luciferase activity (NF-κB activation) (NF-κB [3]): inhibited TNFα-induced luciferase activity; also recorded: inhibited NF-κB activity | p65 cleavage after expression in 293T cells (p65): caused p65 cleavage; also recorded: resulted in selective cleavage of p65 | TNFα-induced luciferase expression (NF-κB [4]): showed no effect

B2: CT858: chlamydial protease detected during an infection but not in purified EB (protein)
chain: MKMNRIWLLLLTFSSAIHSPVQGESLVCKNALQDLSFLEHLLQVKYAPKTWKEQYLGWDLVQSSVSAQQKLRTQENPSTSFCQQVLADFIGGLNDFHAGVTFFAIESAYLPYTVQKSSDGRFYFVDIMTFSSEIRVGDELLEVDGAPVQDVLATLYGSNHKGTAAEESAALRTLFSRMASLGHKVPSGRTTLKIRRPFGTTREVRVKWRYVPEGVGDLATIAPSIRAPQLQKSMRSFFPKKDDAFHRSSSLFYSPMVPHFWAELRNHYATSGLKSGYNIGSTDGFLPVIGPVIWESEGLFRAYISSVTDGDGKSHKVGFLRIPTYSWQDMEDFDPSGPPPWEEFAKIIQVFSSNTEALIIDQTNNPGGSVLYLYALLSMLTDRPLELPKHRMILTQDEVVDALDWLTLLENVDTNVESRLALGDNMEGYTVDLQVAEYLKSFGRQVLNCWSKGDIELSTPIPLFGFEKIHPHPRVQYSKPICVLINEQDFSCADFFPVVLKDNDRALIVGTRTAGAGGFVFNVQFPNRTGIKTCSLTGSLAVREHGAFIENIGVEPHIDLPFTANDIRYKGYSEYLDKVKKLVCQLINNDGTIILAEDGSF
modifications: left off: small tags and cut ends
notes: chlamydial protease detected during an infection but not in purified EB
p65 cleavage after expression in 293T cells (p65): did not exhibit p65 cleavage activity

B3: p40: N-terminal p40 cleavage product of p65/RelA, amino acid residues 1-351 of SEQ ID NO:1 (protein, listed as Homo Sapiens)
chain: MDELFPLIFPAEPAQASGPYVEIIEQPKQRGMRFRYKCEGRSAGSIPGERSTDTTKTHPTIKINGYTGPGTVRISLVTKDPPHRPHPHELVGKDCRDGFYEAELCPDRCIHSFQNLGIQCVKKRDLEQAISQRIQTNNNPFQVPIEEQRGDYDLNAVRLCFQVTVRDPSGRPLRLPPVLPHPIFDNRAPNTAELKICRVNRNSGSCLGGDEIFLLCDKVQKEDIEVYFTGPGWEARGSFSQADVHRQVAIVFRTPPYADPSLQAPVRVSMQLRRPSDRELSEPMEFQYLPDTDDRHRIEEKRKRTYETFKSIMKKSPFSGPTDPRPPPRRIAVPSRSSASVPKPAPQPYPF
modifications: Myc tag
TNFα-induced luciferase activity (NF-κB activation) (NF-κB [3]): inhibited luciferase expression; also recorded: inhibited NF-κB activity
